Assay results published in patent US20240335543A1, “IONIZABLE AMINE AND ESTER LIPIDS AND LIPID NANOPARTICLES” (Beam Therapeutics Inc., priority 2021, published 2024).

Tests used:
[1] = LNP hydrodynamic diameter and polydispersity index by dynamic light scattering (DLS); assay type: physicochemical; settings: LNP with 47.5% Ionizable Lipid: 40% cholesterol: 2.5% PEG-2000 DMG: 10% DPSC, N/P 4-8
Description: (§1) LNPs were prepared with 47.5% Ionizable Lipid (e.g., a compound provided herein): 40% cholesterol: 2.5% PEG-2000 DMG: 10% DPSC and an N/P ratio range of 4-8. LNPs were formed by microfluidic mixing of the lipid and NA solutions using a Precision Nanosystems NanoAssemblr Spark or Benchtop series Instruments, according to the manufacturer's protocol. A ratio of aqueous to organic solvent of approximately 2:1 or 3:1 was maintained during mixing using differential flow rates. After mixing, LNPs were collected, diluted in phosphate buffer saline (PBS) or Tris-buffered saline (TBS) (approximately 1:1 v/v). Further buffer exchange was conducted using dialysis in PBS or TBS at 4° C. for 4 to 24 hours against a 20 kDa filter. After this initial dialysis, each individual LNP preparation was characterized via dynamic light scattering (DLS) to measure the size (e.g., diameter) and polydispersity. LNPs falling within specific diameter and polydispersity ranges were pooled, and further dialyzed against PBS or TBS at 4° C. for 1 to 4 hours against a 100 kDa dialysis cassette. After the second dialysis, LNPs were sterile filtered using 0.22 μm filter and stored at 4° C. for further use.
LNP hydrodynamic diameter and polydispersity index (PDI) were measured using high throughput dynamic light scattering (DLS) (Stunner, Unchained Labs). LNPs were diluted 1×TBS or PBS to an appropriate concentration and analyzed.

[2] = RNA encapsulation efficiency of LNPs by Ribogreen assay; assay type: physicochemical; settings: LNP with 47.5% Ionizable Lipid: 40% cholesterol: 2.5% PEG-2000 DMG: 10% DPSC, N/P 4-8
Description: as §1
RNA concentration and encapsulation efficiency were determined by Ribogreen assay (BioTek Synergy LX plate reader).

Lung = assay: Barcoded LNP biodistribution screen, fold above input (FAI) in lung; assay type: in vivo; settings: pooled LNP IV tail vein, mice, 4 hours post-dose
Description: (§2) Male and female mice aged approximately 8-12 weeks were used for studies described by the present Example. Each mouse was temporarily restrained and pooled LNP was administered IV via tail vein injection in up to five animals per experiment. Age-matched mice was also used to administer vehicle (1×TBS) via tail vein injection in up to three animals per experiment. Additional routes of administration can also be conducted including intracerebral ventricular (ICV), intracisterna manga (ICM), intrathecal (IT), intramuscular (IM), nebulization, intranasal (IN), subcutaneous (SC), intraarticular, and intradermal (ID). At 4 hours post-dose, tissues including liver, spleen, bone marrow, testes, gastrocnemius, quadricep, lung, heart, kidney, and pancreas may be collected for analysis. […]
(§3) To screen for preferential LNP delivery to a target tissues, the relative abundance of each barcode in one or more target tissues was measured and compared to the relative abundance of each barcode to its corresponding relative input abundance to determine fold above input (FAI) for each barcode. […]
(§4) The FAI is the normalized relative abundance of a barcode in a selected sample as compared to its frequency in the input. […] The FAI value of the barcode was calculated by normalizing the relative abundance in the barcode sequence counts in the isolated samples to its relative abundance in the administration input. […]

Spleen = assay: Barcoded LNP biodistribution screen, fold above input (FAI) in spleen; assay type: in vivo; settings: pooled LNP IV tail vein, mice, 4 hours post-dose
Description: as §2, with “(ID).” for “(ID). At 4 hours post-dose, tissues including liver, spleen, bone marrow, testes, gastrocnemius, quadricep, lung, heart, kidney, and pancreas may be collected for analysis.”
Liver, kidney, lung, and muscle (e.g. skeletal and cardiac) tissues may be mechanically, and then enzymatically digested using a mixture of proteinases, then passed through a 70 μm filter to generate single cell suspensions. […] Tissues were treated with ACK buffer to lyse red blood cells, and then stained with fluorescently-labeled antibodies for flow cytometry and fluorescence-activated cell sorting (FACS). […]
as §3

Liver = assay: Barcoded LNP biodistribution screen, fold above input (FAI) in liver; assay type: in vivo; settings: pooled LNP IV tail vein, mice, 4 hours post-dose
Description: as §2, §3, §4

ALAS1 target site = assay: In vivo base editing in liver with LNPs carrying adenine base editor mRNA and sgRNA, targeted deep sequencing; settings: Balb/C mice, tail vein, 0.15 mg/kg total RNA, ABE mRNA + ALAS1 sgRNA 1:1, tissues four to six days post-dose
Description: Exemplary LNP preparations were selected to determine each preparation's ability to perform base editing in a Balb/C mouse model as described herein.
Lipid nanoparticle components were dissolved in 100% ethanol at specified lipid component molar ratios. mRNA encoding an adenine base editor and a chemically-modified sgRNA was dissolved at a mass ratio of 1:1 in 50 mM citrate, pH 4.0, resulting in a concentration of NA cargo of approximately 0.1 mg/mL.
LNP preparations were formulated with molar ratios of 47.5% Ionizable Lipid: 40% Cholesterol: 2.5% PEG2000-DMG: 10% DSPC total lipid to NA mass ratio of 6 to 12.
LNP preparations were formed by microfluidic mixing of the lipid and NA solutions using a Precision Nanosystems NanoAssemblr Ignite series Instruments, according to the manufacturer's protocol.
A 3:1 ratio of aqueous to organic solvent was maintained during mixing using differential flow rates. After mixing, LNP preparations were collected, diluted in TBS (approximately 7:1 v/v), and further buffer exchange was conducted using dialysis in TBS at 4° C. for 8 to 24 hours against a 20 kDa filter. After this initial dialysis, each individual LNP preparation was characterized via dynamic light scattering (DLS) to measure size and polydispersity. pKa of a subpopulation of LNP preparations was measured via TNS assay.
After dialysis, LNP preparations were sterile filtered using 0.22 micron sterile filter and stored at 4° C. for further use. In some embodiments, LNP preparations were concentrated using 100 kDa Amicon filters per manufacturer's protocol.
Male Balb/C mice aged approximately 8-12 weeks were used in the experiments described herein. […]
Age-matched mice were also used to administer vehicle (1×TBS) via tail vein injection as a control. […] Base editing was determined by performing targeted deep sequencing analysis at the ALAS1 target site using extracted genomic DNA. […] Library size and concentration was confirmed by Fragment Analyzer (Agilent) and analyzed for whole genome sequencing using an Illumina HiSeq.

Mean Diameter (nm) [1] | Mean PDI [1] | Mean Encapsulation Efficiency (%) [2] | Compound | FAI (Lung) (Lung; Table 3 screening experiment) | FAI (Lung) (Lung; Table 4 screening experiment) | FAI (Spleen) (Spleen; Table 3 screening experiment) | FAI (Spleen) (Spleen; Table 4 screening experiment) | FAI (Liver) (Liver; Table 3 screening experiment) | FAI (Liver) (Liver; Table 4 screening experiment) | base editing observed in liver (ALAS1 target site)
86.5 nm | 0.09 | 75.3% | CCCCCC(CCCCC)CCOC(=O)CCCCCCCOC(=O)c1cc(C(=O)OCCCCCCCC(=O)OCCC(CCCCC)CCCCC)cc(C(=O)OCCCN(C)C)c1 [Compound 7-7, 1-(3-(dimethylamino)propyl) 3,5-bis(8-oxo-8-((3-pentyloctyl)oxy)octyl) benzene-1,3,5-tricarboxylate] |  |  |  |  |  |  | 
 |  |  | CCCCC/C=C\C/C=C\CCCCCCCCC(CCCCCCCC/C=C\C/C=C\CCCCC)OC(=O)CCCN(C)C [MC3, (6Z,9Z,28Z,31Z)-heptatriaconta-6,9,28,31-tetraen-19-yl 4-(dimethylamino) butanoate] | 0.65 | 1.26 | 0.45 | 1.71 | 0.31 | 1.30 | 
124.6 nm | 0.10 | 94.7% | CCCCCCC(CC)OC(=O)CCCCCCCCN(CCCCCCCCC(=O)OC(CC)CCCCCC)CCCNC(=O)c1cc(C(=O)NCCCN(CCCCCCCCC(=O)OC(CC)CCCCCC)CCCCCCCCC(=O)OC(CC)CCCCCC)cc(C(=O)OCCN(C)C)c1 (stereo not drawn) [Compound 7-5, tetra(nonan-3-yl) 9,9′,9″,9′-((((5-((2-(dimethylamino)ethoxy)carbonyl)isophthaloyl)bis(azanediyl))bis(propane-3,1-diyl))bis(azanetriyl))tetranonanoate] |  |  |  |  |  |  | 5.2%
110.0 nm | 0.08 | 58.4% | CCCCCCC(CC)OC(=O)CCCCCCCCN(CCCCCCCCC(=O)OC(CC)CCCCCC)CCCNC(=O)c1ccc(C(=O)NCCCN(CCCCCCCCC(=O)OC(CC)CCCCCC)CCCCCCCCC(=O)OC(CC)CCCCCC)cc1 (stereo not drawn) [Compound 7-2, tetra(nonan-3-yl) 9,9′,9″,9′″-(((terephthaloylbis(azanediyl))bis(propane-3,1-diyl))bis(azanetriyl))tetranonanoate] |  |  |  |  |  |  | 3.1%
82.4 nm | 0.16 | 76.7% | CCCCCCC(CC)OC(=O)CCCCCCCCN(CCCCCCCCC(=O)OC(CC)CCCCCC)CCCNC(=O)c1cccc(C(=O)NCCCN(CCCCCCCCC(=O)OC(CC)CCCCCC)CCCCCCCCC(=O)OC(CC)CCCCCC)c1 (stereo not drawn) [Compound 7-1, tetra(nonan-3-yl) 9,9′,9″,9′″-(((isophthaloylbis(azanediyl))bis(propane-3,1-diyl))bis(azanetriyl))tetranonanoate] |  |  |  |  |  |  | 28.2%
90.8 nm | 0.11 | 84.9% | CCCCCC(CCCCC)CCOC(=O)CCCCCCCOC(=O)c1cc(C(=O)OCCCCCCCC(=O)OCCC(CCCCC)CCCCC)cc(C(=O)OCCCCN(C)C)c1 [Compound 7-9, 1-(4-(dimethylamino)butyl) 3,5-bis(8-oxo-8-((3-pentyloctyl)oxy)octyl) benzene-1,3,5-tricarboxylate] |  |  |  |  |  |  | 
